Reference: patent US20220315534A1, “BETA ADRENERGIC AGONIST AND METHODS OF USING THE SAME” (Curasen Therapeutics, Inc., priority 2019, published 2022)

Legend:
[1] = target: T1, β1-adrenergic receptor (B1-AR) (Homo sapiens, UniProt P08588); assay: cAMP Gs dynamic HTRF assay, cells expressing β1-adrenergic receptor; type: cell-based; conditions: CHO-K1 (HitHunter) cells; read-out: Average pEC50 [Receptor subtype: B1-AR; Cell type: CHO-K1 (HitHunter)] (converted)
T1 construct: expressed in transfected cells
T1 sequence (P08588 whole entry): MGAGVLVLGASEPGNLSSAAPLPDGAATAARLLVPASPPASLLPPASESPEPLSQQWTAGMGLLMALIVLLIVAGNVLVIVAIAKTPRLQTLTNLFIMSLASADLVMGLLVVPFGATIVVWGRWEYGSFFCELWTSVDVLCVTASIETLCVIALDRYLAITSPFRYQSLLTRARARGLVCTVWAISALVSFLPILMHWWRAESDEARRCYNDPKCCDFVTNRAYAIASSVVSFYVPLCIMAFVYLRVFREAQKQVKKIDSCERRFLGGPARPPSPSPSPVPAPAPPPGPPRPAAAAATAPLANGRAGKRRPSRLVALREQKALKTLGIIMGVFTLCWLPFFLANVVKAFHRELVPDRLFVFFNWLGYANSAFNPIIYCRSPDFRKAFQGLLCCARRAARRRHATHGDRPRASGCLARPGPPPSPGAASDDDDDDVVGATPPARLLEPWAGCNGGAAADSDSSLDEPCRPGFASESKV
Description: (§1) cAMP homogeneous time-resolved fluorescence (HTRF): experimental methods. Compound efficacy is determined using the cAMP Gs dynamic HTRF assay (Cisbio, catalog #62AM4PEC) largely following the manufacturer's instructions, also detailed below.
(§2) Standard serial dilution curves are 10-point, 5-fold dilutions starting from a highest concentration of 10 μM. […] Assay plates are centrifuged at 500×g for 10 seconds. Compounds and IBMX are prepared at 2× final dose to compensate for addition of cells.
(§3) Cell preparation: 1× stimulation buffer, washing PBS (Dulbecco's phosphate-buffered saline, —Mg —Ca; Caisson Labs, catalog #PBL01), assay PBS (Dulbecco's phosphate-buffered saline, +Mg, +Ca; Caisson Labs, catalog #PBL02) and Versene (0.02% EDTA disodium salt solution in PBS without calcium or magnesium; Caisson Labs, catalog #EDL01) are pre-warmed to 37° C. Cells expressing beta-adrenergic receptor were washed in washing PBS to remove growth medium and then released from the surface by incubating with Versene for 5-10 minutes at 37° C. Cells are harvested using assay PBS, counted manually by hemocytometer or by an automated cell counter, pelleted by centrifugation (200×g, 5 minutes) and resuspended in 37° C. 1× stimulation buffer to a final density of […]. 5 μL of the suspended cell solution (7500 cell total) are added to all wells of the 384 well assay plate, the assay plate was covered with an Axygen® plate seal (Corning PCR-SP) and incubated in a humidified 37° C. environment supplemented with 5% CO2 for 30 minutes.
(§4) HTRF reagent addition, reading and data analysis: After 30 minutes of cell stimulation with test compound, the assay plates are centrifuged at 500×g for 10 seconds, and incubation was stopped with the addition of 5 μL cAMP-D2 acceptor, diluted 1:21 in detection and lysis buffer 2 (Cisbio 62CL2FDF) was added to all cells. Subsequently, 5 μL Anti-cAMP-Eu Donor, diluted 1:21 in detection and lysis buffer 2, was added to cells. Plates were sealed and reactions gently ‘vortexed’ at 900 rpm on a Heidolph Titramax 1000 for at least 30 minutes at room temperature. Plates are centrifuged again at 500×g for 10 seconds, and HTRF was measured using a Tecan Spark plate reader at 50 flashes per well. […] Potency estimates (EC50 and pEC50) are derived from the four-parameter nonlinear regression of the concentration-effect curve and an estimate of relative efficacy is determined by comparing the magnitude of the test compound HTRF signal window (min-max dose) with the signal window of the full agonist control, isoproterenol.

[2] = target: T2, β2-adrenergic receptor (B2-AR) (Homo sapiens, UniProt P07550); assay: cAMP Gs dynamic HTRF assay, cells expressing β2-adrenergic receptor; type: cell-based; conditions: CHO-K1 (HitHunter) cells; read-out: Average pEC50 [Receptor subtype: B2-AR; Cell type: CHO-K1 (HitHunter)] (converted)
T2 construct: expressed in transfected cells
T2 sequence (P07550 whole entry): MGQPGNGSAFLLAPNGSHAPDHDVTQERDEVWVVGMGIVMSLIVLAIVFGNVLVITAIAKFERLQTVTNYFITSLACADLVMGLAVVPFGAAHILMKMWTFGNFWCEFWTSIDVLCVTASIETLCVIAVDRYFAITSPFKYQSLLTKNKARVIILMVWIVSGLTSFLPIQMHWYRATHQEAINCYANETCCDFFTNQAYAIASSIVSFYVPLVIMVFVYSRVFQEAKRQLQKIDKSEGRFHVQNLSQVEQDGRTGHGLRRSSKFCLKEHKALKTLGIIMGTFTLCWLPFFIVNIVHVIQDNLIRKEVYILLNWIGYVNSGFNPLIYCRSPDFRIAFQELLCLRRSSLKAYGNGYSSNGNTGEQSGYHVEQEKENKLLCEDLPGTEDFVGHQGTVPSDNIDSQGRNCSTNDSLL
Description: as §1, §2, §3, §4

SMILES	EC50 [1]	EC50 [2]
CC(C)(C)NC[C@H](O)c1nccc2[nH]ncc12 [Compound 04-144, (S)-2-(tert-butylamino)-1-(1H-pyrazolo[4,3-c]pyridin-4-yl)ethan-1-ol]	> 1000 nM	> 1000 nM
COc1ccc([C@@H](O)CNC(C)(C)C)c2cn[nH]c12 [Compound 04-150]	10 to 100 nM	< 10 nM
CC(C)(C)NC[C@H](O)c1cccc2[nH]nc(C#N)c12 [Compound 04-151]	< 10 nM	10 to 100 nM
CC(C)(C)NC[C@H](O)c1cccc2[nH]ncc12 [Compound 04-153]	> 1000 nM	10 to 100 nM
COc1cc([C@@H](O)CNC(C)(C)C)c2cn[nH]c2c1 [Compound 04-154]	100 to 1000 nM	< 10 nM
Cc1cc([C@@H](O)CNC(C)(C)C)cc2nc[nH]c12 [Compound 04-155]	> 1000 nM	100 to 1000 nM
CC(C)(C)NC[C@H](O)c1cc(F)c2[nH]cnc2c1 [Compound 04-156]	10 to 100 nM	< 10 nM
CC(C)(C)NC[C@H](O)c1cnc2[nH]cnc2c1 [Compound 04-157]	100 to 1000 nM	10 to 100 nM
CC(C)(C)NC[C@H](O)c1cccc2c1C(F)(F)C(=O)N2 [Compound 04-158]	10 to 100 nM	< 10 nM

Other lines, results leading:

EC50 [1]	EC50 [2]	SMILES
> 1000 nM	> 1000 nM	CC(C)(C)NC[C@@H](O)c1nccc2[nH]ncc12 [Compound 04-145, (R)-2-(tert-butylamino)-1-(1H-pyrazolo[4,3-c]pyridin-4-yl)ethan-1-ol]
< 10 nM	< 10 nM	CC(C)CNC[C@H](O)c1cc(F)cc2[nH]ncc12 [Compound 04-146]
< 10 nM	< 10 nM	CC1(NC[C@H](O)c2cc(F)cc3[nH]ncc23)CC1 [Compound 04-147]
< 10 nM	< 10 nM	CC1(NC[C@H](O)c2cc(F)cc3[nH]ncc23)CCC1 [Compound 04-148]
< 10 nM	< 10 nM	CC(C)NC[C@H](O)c1cc(F)cc2[nH]ncc12 [Compound 04-149]
< 10 nM	< 10 nM	CC(C)NC[C@H](O)c1cccc2[nH]c(=O)ccc12 [Compound 04-152]
